In ChEMBL document CHEMBL1123235, “Cholecystokinin antagonists. Synthesis of asperlicin analogues with improved potency and water solubility” (J Med Chem, 1986):

Each molecule was assayed against T1, Cholecystokinin receptor (Rattus norvegicus, UniProt P30551+P30553) (assay: Inhibition of [125I]CCK binding to rat pancreatic Cholecystokinin receptor).
T1 sequence (P30551 whole entry): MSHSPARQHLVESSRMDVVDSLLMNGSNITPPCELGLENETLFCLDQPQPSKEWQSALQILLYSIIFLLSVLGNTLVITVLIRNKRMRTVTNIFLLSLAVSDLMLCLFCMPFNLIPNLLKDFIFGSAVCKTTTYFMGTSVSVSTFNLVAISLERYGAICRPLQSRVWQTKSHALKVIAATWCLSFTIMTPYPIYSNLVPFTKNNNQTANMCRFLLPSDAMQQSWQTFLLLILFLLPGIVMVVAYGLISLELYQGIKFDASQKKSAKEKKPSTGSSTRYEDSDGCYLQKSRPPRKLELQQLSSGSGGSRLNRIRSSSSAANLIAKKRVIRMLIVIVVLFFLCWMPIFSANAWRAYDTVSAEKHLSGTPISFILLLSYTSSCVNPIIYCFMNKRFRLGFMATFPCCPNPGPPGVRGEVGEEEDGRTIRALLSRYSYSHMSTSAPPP
T1 sequence (P30553 whole entry): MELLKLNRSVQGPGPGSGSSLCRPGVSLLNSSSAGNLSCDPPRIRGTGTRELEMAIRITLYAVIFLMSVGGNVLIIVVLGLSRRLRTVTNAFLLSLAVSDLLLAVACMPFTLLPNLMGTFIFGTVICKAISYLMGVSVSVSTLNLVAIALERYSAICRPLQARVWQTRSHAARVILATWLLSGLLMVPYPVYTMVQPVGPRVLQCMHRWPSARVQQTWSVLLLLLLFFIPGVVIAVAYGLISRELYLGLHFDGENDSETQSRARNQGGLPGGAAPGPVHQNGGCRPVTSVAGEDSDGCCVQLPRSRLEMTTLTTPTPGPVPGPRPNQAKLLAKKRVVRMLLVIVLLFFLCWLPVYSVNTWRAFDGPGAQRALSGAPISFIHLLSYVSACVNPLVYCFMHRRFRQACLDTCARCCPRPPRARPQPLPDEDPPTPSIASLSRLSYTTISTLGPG
Assay type: protein assay
Work on `CC(C)C[C@H]1C(=O)N2c3ccccc3[C@@](O)(C[C@@H]3NC(=O)c4ccccc4-n4c3nc3ccccc3c4=O)[C@H]2N1C(=O)C(Cc1ccc(OCc2ccccc2)cc1)NC(=O)OC(C)(C)C` (stereo partly drawn) yielded an IC50 of over 100 µM. `CC(C)C[C@@H]1N[C@H]2N(C1=O)c1ccccc1[C@@]2(O)C[C@@H]1NC(=O)c2ccccc2-n2c1nc1ccccc1c2=O` [ASPERLICIN] showed an IC50 of […]. Molecule `CC(C)C[C@H]1C(=O)N2c3ccccc3[C@](C[C@@H]3NC(=O)c4ccccc4-n4c3nc3ccccc3c4=O)(OC(=O)CCC(=O)OCc3ccccc3)[C@H]2N1C(=O)OCc1ccccc1` has an IC50 of 100 µM. In the case of `CC(C)C[C@H]1C(=O)N2c3ccccc3[C@@](O)(C[C@@H]3NC(=O)c4ccccc4-n4c3nc3ccccc3c4=O)[C@H]2N1C(=O)C(Cc1ccc(O)cc1)NC(=O)OC(C)(C)C` (stereo partly drawn), the IC50 was 46 µM. `CC(C)C[C@H]1C(=O)N2c3ccccc3[C@@](O)(C[C@@H]3NC(=O)c4ccccc4N4C(=O)c5ccccc5NC34)[C@H]2N1C(=O)CCC(=O)[O-].[Na+]` (stereo partly drawn) was tested, and the IC50 was 1 µM. `CC(=O)N1[C@H]2N(C(=O)[C@@H]1CC(C)C)c1ccccc1[C@@]2(O)C[C@@H]1NC(=O)c2ccccc2-n2c1nc1ccccc1c2=O` was tested, and the IC50 was 22 µM. `CC(C)C[C@H]1C(=O)N2c3ccccc3[C@@](O)(C[C@@H]3NC(=O)c4ccccc4N4C(=O)c5ccccc5NC34)[C@H]2N1C(=O)CCC(=O)O` (stereo partly drawn) showed an IC50 of 4.3 µM. In the case of `CC(C)C[C@@H]1N[C@H]2N(C1=O)c1ccccc1[C@@]2(O)C[C@@H]1NC(=O)c2ccccc2N2C(=O)c3ccccc3NC12` (stereo partly drawn), the IC50 was 0.2 µM. `CC(C)C[C@H]1C(=O)N2c3ccccc3[C@@](O)(C[C@@H]3NC(=O)c4ccccc4-n4c3nc3ccccc3c4=O)[C@H]2N1C(=O)C(CCCCNC(=O)OCc1ccccc1)NC(=O)OC(C)(C)C` (stereo partly drawn) was tested, and the IC50 was over 100 µM. `CC(C)C[C@H]1C(=O)N2c3ccccc3[C@@](O)(C[C@@H]3NC(=O)c4ccccc4-n4c3nc3ccccc3c4=O)[C@H]2N1C(=O)C(CCCNC(=O)OCc1ccccc1)NC(=O)OC(C)(C)C` (stereo partly drawn) showed an IC50 of 4.3 µM. `CCN1[C@H]2N(C(=O)[C@@H]1CC(C)C)c1ccccc1[C@@]2(O)C[C@@H]1NC(=O)c2ccccc2N2C(=O)c3ccccc3NC12` (stereo partly drawn) was tested, and the IC50 was 0.4 µM. In the case of `CC(C)C[C@H]1C(=O)N2c3ccccc3[C@@](O)(C[C@@H]3NC(=O)c4ccccc4N4C(=O)c5ccccc5NC34)[C@H]2N1CCCc1ccccc1` (stereo partly drawn), the IC50 was 0.2 µM. `CC(C)C[C@H]1C(=O)N2c3ccccc3[C@@](O)(C[C@@H]3NC(=O)c4ccccc4-n4c3nc3ccccc3c4=O)[C@H]2N1C(=O)OCc1ccccc1` gave an IC50 of 5 µM. `CC(C)C[C@H]1C(=O)N2c3ccccc3[C@@](O)(C[C@@H]3NC(=O)c4ccccc4-n4c3nc3ccccc3c4=O)[C@H]2N1C(=O)CCC(=O)O` was tested, and the IC50 was over 100 µM. Work on `CC(C)C[C@@H]1N[C@H]2N(C1=O)c1ccccc1[C@]2(C[C@@H]1NC(=O)c2ccccc2-n2c1nc1ccccc1c2=O)OC(=O)CCC(=O)O` yielded an IC50 of 85 µM. `CC(C)C[C@H]1C(=O)N2c3ccccc3[C@@](O)(C[C@@H]3NC(=O)c4ccccc4-n4c3nc3ccccc3c4=O)[C@H]2N1C(=O)C(N)CCCCN.Cl` (stereo partly drawn) was tested, and the IC50 was 2.5 µM. With `CC(C)C[C@H]1C(=O)N2c3ccccc3[C@](C[C@@H]3NC(=O)c4ccccc4N4C(=O)c5ccccc5NC34)(OC(=O)CCC(=O)OCc3ccccc3)[C@H]2N1C(=O)OCc1ccccc1` (stereo partly drawn) the IC50 was 100 µM. `CC(C)C[C@H]1C(=O)N2c3ccccc3[C@@](O)(C[C@@H]3NC(=O)c4ccccc4N4C(=O)c5ccccc5NC34)[C@H]2N1C(=O)C(CCCNC(=O)OCc1ccccc1)NC(=O)OC(C)(C)C` (stereo partly drawn) showed an IC50 of 1.3 µM.
